pIC50, pKi: −log10 of the molar value. Like-named read-outs stand apart in the source and are kept apart here.
How the values were obtained:
[1] = biological target: T1, A3 (h) adenosine receptor (Homo sapiens, UniProt P0DMS8); experiment: Human recombinant adenosine receptor binding, A3 (h), [3H]AB-MECA; details: for pKi: Table 8, read-out: Affinity Ki, A3
T1 construct: expressed in transfected cells
T1 sequence (P0DMS8 1-318): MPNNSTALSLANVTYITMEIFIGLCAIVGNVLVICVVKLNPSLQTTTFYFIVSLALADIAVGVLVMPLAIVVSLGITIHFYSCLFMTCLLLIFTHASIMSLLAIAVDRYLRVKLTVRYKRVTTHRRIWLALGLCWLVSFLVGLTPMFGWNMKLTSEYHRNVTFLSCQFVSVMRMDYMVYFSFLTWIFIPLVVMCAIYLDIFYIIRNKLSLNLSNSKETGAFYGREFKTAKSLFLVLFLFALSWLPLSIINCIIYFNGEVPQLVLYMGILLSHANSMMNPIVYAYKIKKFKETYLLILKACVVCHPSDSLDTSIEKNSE
Protocol: (§1) The compounds of the present invention were subjected to in vitro human recombinant adenosine receptor binding assays. Scintillation counting was used as the method of detection.
(§2) The IC50 values (concentration causing a half-maximal inhibition of control specific binding) and Hill coefficients (nH) were determined by non-linear regression analysis of the competition curves using Hill equation curve fitting (Motulsky, H. and Christopoulos, A., Fitting Models to Biological Data Using Linear and Nonlinear Regression, GraphPad Software Inc. (2003)).
(§3) The inhibition constants (Ki) were calculated from the Cheng Prusoff equation (Motulsky, H. and Christopoulos, A., supra).

[2] = biological target: T2, A2A (h) adenosine receptor (Homo sapiens, UniProt P29274); experiment: Human recombinant adenosine receptor binding, A2A (h), [3H]CGS 21680
T2 construct: expressed in transfected cells
T2 sequence (P29274 whole entry): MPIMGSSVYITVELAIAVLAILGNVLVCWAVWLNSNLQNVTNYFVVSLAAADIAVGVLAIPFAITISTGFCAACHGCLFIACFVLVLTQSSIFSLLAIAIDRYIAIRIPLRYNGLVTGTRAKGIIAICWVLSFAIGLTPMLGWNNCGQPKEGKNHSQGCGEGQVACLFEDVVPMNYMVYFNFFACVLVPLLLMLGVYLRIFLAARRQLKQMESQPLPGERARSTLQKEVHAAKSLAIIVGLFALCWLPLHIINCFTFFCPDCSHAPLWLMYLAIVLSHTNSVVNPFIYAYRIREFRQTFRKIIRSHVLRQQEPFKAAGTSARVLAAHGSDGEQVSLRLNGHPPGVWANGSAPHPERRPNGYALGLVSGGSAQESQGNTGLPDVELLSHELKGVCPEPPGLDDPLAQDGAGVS
Protocol: as §1, §2, §3

[3] = biological target: T3, A1 (h) adenosine receptor (Homo sapiens, UniProt P30542); experiment: Human recombinant adenosine receptor binding, A1 (h), [3H]DPCPX; details: for A1 Selectivity vs. A2A / A1 Selectivity vs. A2B / A1 Selectivity vs. A3: ratio of Ki
T3 construct: expressed in transfected cells
T3 sequence (P30542 1-326): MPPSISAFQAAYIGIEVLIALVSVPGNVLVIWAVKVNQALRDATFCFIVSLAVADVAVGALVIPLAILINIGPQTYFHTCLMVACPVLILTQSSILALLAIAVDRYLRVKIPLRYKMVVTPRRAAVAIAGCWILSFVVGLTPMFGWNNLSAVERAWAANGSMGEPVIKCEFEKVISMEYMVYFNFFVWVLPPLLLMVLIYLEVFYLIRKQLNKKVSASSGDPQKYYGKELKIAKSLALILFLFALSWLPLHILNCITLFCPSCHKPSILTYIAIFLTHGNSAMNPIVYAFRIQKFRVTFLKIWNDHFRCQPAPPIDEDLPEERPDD
Protocol: as §1, §2, §3

adenosine A1 receptors = biological target: T4, adenosine A1 receptors (Cavia porcellus, UniProt P47745); experiment: Adenosine A1 in vitro functional test, negative inotropic response in left atria (Schild plot); assay type: cell-based; details: guinea pig left atria, agonist NECA or CPA, read-out: KB (antagonist dissociation constant)
T4 construct: from tissue; host or cells: guinea pig left atria
T4 sequence (P47745 1-326): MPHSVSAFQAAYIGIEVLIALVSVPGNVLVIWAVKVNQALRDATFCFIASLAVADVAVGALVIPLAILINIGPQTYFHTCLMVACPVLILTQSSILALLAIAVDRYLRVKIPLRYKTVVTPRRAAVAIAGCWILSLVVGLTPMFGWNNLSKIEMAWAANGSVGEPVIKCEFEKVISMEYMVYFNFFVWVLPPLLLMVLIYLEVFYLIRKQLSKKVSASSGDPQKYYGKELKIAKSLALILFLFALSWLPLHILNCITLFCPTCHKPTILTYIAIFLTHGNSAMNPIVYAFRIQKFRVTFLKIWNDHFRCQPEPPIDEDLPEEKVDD
Protocol: A1 assay—Negative inotropic response (Barrett, R. J. et al., J. Pharmacol. Exp. Ther. 265:227-236 (1993)): Guinea pig left atria were placed in organ baths filled with Krebs Henseleit solution gassed with 95% O2 and 5% CO2 and maintained at a temperature of 31° C. An initial resting tension of 1 g was placed on each tissue, which was allowed to equilibrate. Atria were stimulated electrically to produce twitch responses. A fixed concentration of the test compound was added and the tissue was allowed to equilibrate for 1 hour before cumulative additions of an adenosine agonist (either 5′-N-ethylcarboxamidoadenosine (NECA) or N^6-cyclopentyladenosine (CPA)) to generate a dose response curve. This procedure was repeated with different concentrations of test compounds to generate a family of dose response curves. Schild plots were constructed from the resultant concentration-effect curves, and KB (antagonist dissociation constant) values were obtained. The results presented in Table 9 are expressed as KB values (concentrations of test compound such that one-half of the tissue adenosine receptor population is occupied by the test compound).

[4] = biological target: T5, A2B (h) adenosine receptor (Homo sapiens, UniProt P29275); experiment: Human recombinant adenosine receptor binding, A2B (h), [3H]MRS 1754; details: for pKi: Table 8, read-out: Affinity Ki, A2B
T5 construct: expressed in transfected cells
T5 sequence (P29275 1-332): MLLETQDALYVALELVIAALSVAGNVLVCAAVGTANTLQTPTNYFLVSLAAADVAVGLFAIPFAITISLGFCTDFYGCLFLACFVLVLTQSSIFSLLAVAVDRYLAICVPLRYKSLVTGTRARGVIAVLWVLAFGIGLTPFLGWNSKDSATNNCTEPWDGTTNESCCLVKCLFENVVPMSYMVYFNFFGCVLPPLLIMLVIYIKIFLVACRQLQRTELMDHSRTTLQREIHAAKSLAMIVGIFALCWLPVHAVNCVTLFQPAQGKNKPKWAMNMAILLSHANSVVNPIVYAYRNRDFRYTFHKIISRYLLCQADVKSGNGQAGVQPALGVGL
Protocol: as §1, §2, §3

[5] = biological target: T6, A1 (h) (agonist site) adenosine receptor (Homo sapiens, UniProt P30542); experiment: Human recombinant adenosine receptor binding, A1 (h) (agonist site), [3H]CCPA; details: for pKi / pIC50 / nH (Hill coefficient), A1 (h) (agonist site): [3H]CCPA, Table 5; for pKi: Cheng Prusoff
T6 construct: expressed in transfected cells
T6 sequence (P30542 1-326): T3 sequence (P30542 1-326)
Protocol: as §1, §2, §3

[6] = Cheng Prusoff, Table 6, read-out: Ki, A2A (h)
[7] = Table 8, read-out: Affinity Ki, A2A
[8] = Table 8, read-out: Affinity Ki, A1
[9] = [3H]DPCPX, Cheng Prusoff, Table 5, read-out: Ki, A1 (h)

Compound	pKi [1]	pKi [2, 6]	pIC50 ([2]; Table 6)	nH (Hill coefficient), A2A (h) ([2]; Table 6)	pKi [2, 7]	pKi [3, 8]	pKi [3, 9]	pIC50 ([3]; [3H]DPCPX, Table 5)	nH (Hill coefficient), A1 (h) ([3]; [3H]DPCPX, Table 5)	A1 Selectivity vs. A2A ([3]; Table 8)	A1 Selectivity vs. A2B ([3]; Table 8)	A1 Selectivity vs. A3 ([3]; Table 8)	Kb (adenosine A1 receptors) [µM]	pKi [4]	pKi [5]	pIC50 [5]	nH (Hill coefficient), A1 (h) (agonist site) [5]	further results
CC(C)N(C)c1nc2c(NC3CC4CC3CC4OCCCS(=O)(=O)O)ncnc2n1C (single isomer, unassigned) [1 (−isomer)]	< 4.00	4.09	4.00	1.4	4.09	5.96	5.96	5.74	1.0	75	>3000	>3000	0.3	< 4.00	5.74	5.37	1.0	
CC(C)N(C)c1nc2c(NC3CC4CC3CC4OCCCS(=O)(=O)O)ncnc2n1C (single isomer, unassigned) [Compound 1 (+isomer)]	< 4.00	5.59	5.49	0.8	5.59	7.49	7.49	7.28	0.9	81	>3000	>3000	32	< 4.00	7.07	6.68	1.3	pIC50 ([1]; Table 7, N.C. = not calculable, less than 25% inhibition at the highest tested concentration): < 4.00
CC(C)N(C)c1nc2c(N[C@H]3CC[C@H](OCCCS(=O)(=O)O)CC3)ncnc2n1C [Compound 6, N^6-[trans-4′-(^3-sulfopropoxy)cyclohexyl]-8-isopropylmethylamino-9-methyladenine]													85					
CC(C)N(C)c1nc2c(NC3CC4CC3CC4O)[n+](C)cnc2n1C.[Cl-] (stereo not drawn) [Compound 14, N^6-(endo-5′-hydroxynorbornyl)-1-methyl-8-isopropylmethylamino-9-methyladenine chloride]																		Percent Inhibition of Control Specific Binding, A3 (h) ([1]; compound at 1×10^−5M, HEK-293 cells, [3H]AB-MECA 0.15 nM): 5; Percent Inhibition of Control Specific Binding, A2A (h) ([2]; compound at 1×10^−5M, HEK-293 cells, [3H]CGS 21680 6 nM): −9; Percent Inhibition of Control Specific Binding, A1 (h) ([3]; compound at 1×10^−5M, CHO cells, [3H]DPCPX 1 nM): −1; Percent Inhibition of Control Specific Binding, A2B (h) ([4]; compound at 1×10^−5M, HEK-293 cells, [3H]MRS 1754 0.5 nM): 5; Percent Inhibition of Control Specific Binding, A1 (h) (agonist site) ([5]; compound at 1×10^−5M, CHO cells, [3H]CCPA 1 nM): 18

— patent US20080161327A1, “Substituted 9-Alkyladenines and the Use Thereof” (Aderis Pharmaceuticals, Inc., priority 2005, published 2008)
